Measurements reported in PubChem BioAssay AID743235 (The Scripps Research Institute Molecular Screening Center, 2013).
Calls of active or inactive are those of the source. No rule for the calls is given here.

Tested on: Counterscreen cells for TAAR1 agonist assay, fluorescence
Assay: TAAR1 agonist activity of antagonist hits, late-stage follow-up, counter-screen for TAAR1 antagonist project, cell-based, fluorescence, human (AID 743235)

Structure (SMILES) | EC50
Cc1ccc(CSCC(=O)Nc2cc(S(=O)(=O)N3CCOCC3)ccc2OCC(F)(F)F)cc1 | > 29.9 µM (inactive)
COc1cccc(-c2nn(-c3ccccc3)cc2C(=O)Nc2nccs2)c1 | > 29.9 µM (inactive)
O=C(NCCn1cc(SCc2ccccc2F)c2ccccc21)c1c(F)cccc1F | > 29.9 µM (inactive)
COc1cc(NC(=O)c2cc3ccccc3o2)c(OC)cc1Cl | > 29.9 µM (inactive)
CCOC(=O)C1CCCN(c2c(C(=O)c3ccccc3)cnc3ccc(OC)cc23)C1 (stereo unspecified) | 20.1 µM (inactive)
Cc1cccc(C(C#N)c2nc3ccccc3nc2C(F)(F)F)c1 (stereo unspecified) | > 29.9 µM (inactive)
